Laboratory results as given in article PMC11859726, “HDAC/σ1R Dual-Ligand as a Targeted Melanoma Therapeutic” (Pharmaceuticals, 2025).

Assays:
UM 92-1 cells [1] = experiment: Cell proliferation, UM 92-1 cells; assay type: cell-based, human; conditions: UM 92-1 cells; 3c 30 and 100 nM; pentazocine 2 μM; AC927 2 μM; Figure 3a
Description: (§1) Cells were seeded in 96-well plates at a cell-specific density, following quantification of cell numbers on counting chambers after trypsinization and staining with trypan blue. After seeding (72 h), at a cell confluence of ~50%, the medium was removed, and treatments were started with fresh media. Treatments, carried out in quadruplicate, lasted for 48 h. Then, the cells were fixed with 4% paraformaldehyde in PBS for 20 min and, after washing, stained with either 1% crystal violet in water or an acridine orange solution (50 µg/mL) for an additional 20 min. At the end of the incubations, cells were washed (3 times) with 100 μL/well of bidistilled water. Finally, for crystal violet assays, 100 μL of 10% acetic acid was added to each well, and the absorbance (λ = 590 nm) was measured with a Synergy HTX Bioteck spectrophotometer (BioSPX, Beersel, Belgium). For acridine orange assays, cell staining was evaluated by measuring the fluorescence (excitation 485/20 nm, emission 528/20 nm) with the Synergy HTX Bioteck reader.

A375 cells = experiment: Cell proliferation, CM A375 cells; assay type: cell-based, human; conditions: CM A375 cells; 3c 90 and 200 nM; pentazocine 2 μM; AC927 2 μM; Figure 3b
Description: as §1

σ1R = biological target: T1, σ1R (Cavia porcellus, UniProt Q60492); experiment: σ1R radioligand binding assay ([3H]-(+)-pentazocine); set-up: species or system guinea pig
T1 construct: using guinea pig brain membranes and appropriate radioligands; from tissue; host or cells: guinea pig brain membranes
Description: (§3) Radioactivity was determined with a Beckman LS6500 scintillation counter. Inhibition constants (Ki values) were calculated with the EBDA/LIGAND program (Elsevier/Biosoft).

MCF7 cells = experiment: Tumor cell spreading assay, MCF7 cells; assay type: cell-based, human; conditions: 100 nM, 1 h
Description: (§2) Adherent 92-1 and MCF-7 cells were harvested using 0.05% Trypsin-EDTA and plated in 6-well plates. After 1 h incubations with the indicated treatments, the number of cells that formed, or not, distinct protrusions (lamellipodia, filopodia) were scored with an inverted microscope (20×, EVOS cell imaging system, Thermo Fisher, Waltham, MA, USA).

endothelial C166 cells = experiment: Tube formation assay, VEGF-A-stimulated endothelial cells; assay type: cell-based, mouse; conditions: 5 µM; 3 h; VEGF-A 80 ng/mL
Description: The tube formation assay using mouse endothelial […] cells was analyzed employing Matrigel (BD, Bedford, MA, USA), as previously described. Briefly, 96-well plates coated with Matrigel (50 μL/well) were filled with 100 μL medium/well and maintained overnight. Endothelial cells were seeded at 2.5 × 10^4 cells/well and incubated (for 3 h) with VEGF-A (80 ng/mL), in the presence of the indicated treatments. Then, capillary-like structures were imaged (×4 magnification) with a CCD camera connected with an inverted EVOS microscope. Finally, ImageJ software (NIH, Bethesda, MD, USA) was employed to quantify tube formations.

UM 92-1 cells [2] = experiment: Tumor cell spreading assay, 92-1 cells; assay type: cell-based, human; conditions: 1 h; for cells flat, with protrusions, Exp 1 (%) / cells flat, with protrusions, Exp 2 (%) / cells flat, with protrusions, Exp 3 (%) / rounded cells, Exp 1 (%) / rounded cells, Exp 2 (%) / rounded cells, Exp 3 (%): 92-1, % of total cell population
Description: as §2

σ2R = biological target: T2, σ2R (Cavia porcellus, UniProt H0V073); experiment: σ2R radioligand binding assay ([3H]-DTG); set-up: species or system guinea pig; conditions: guinea pig brain membranes; mean ± SD; read-out: Ki σ2R
T2 construct: using guinea pig brain membranes and appropriate radioligands; from tissue; host or cells: guinea pig brain membranes
T2 sequence (H0V073 1-176): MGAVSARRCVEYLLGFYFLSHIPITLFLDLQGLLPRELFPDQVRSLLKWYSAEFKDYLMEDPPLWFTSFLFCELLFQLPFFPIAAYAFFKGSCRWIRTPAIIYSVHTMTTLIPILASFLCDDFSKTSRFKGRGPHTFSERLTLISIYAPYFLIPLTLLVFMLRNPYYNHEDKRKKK
Description: as §3

[3] = MCF-7, % of total cell population

T1 sequence (Q60492 whole entry): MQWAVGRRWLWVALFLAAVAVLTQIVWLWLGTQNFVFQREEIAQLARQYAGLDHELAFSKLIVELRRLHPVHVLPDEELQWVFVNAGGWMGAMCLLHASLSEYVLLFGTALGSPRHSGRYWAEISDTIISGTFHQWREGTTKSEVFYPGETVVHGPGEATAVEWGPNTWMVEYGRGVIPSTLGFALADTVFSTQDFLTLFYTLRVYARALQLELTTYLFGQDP

CC(C)=CCN1CCC2(C)c3cc(O)ccc3CC1C2C (centres unmarked) [PTZ, pentazocine, reference compound]
effect on proliferation (UM 92-1 cells [1]): did not alter | effect on proliferation (A375 cells): did not alter

c1ccc(CCN2CCCCC2)cc1 [AC927, reference compound]
effect on proliferation (UM 92-1 cells [1]): did not alter | effect on proliferation (A375 cells): did not alter

COC(=O)/C=C/c1ccc(CN2CCC(O)(c3ccc(Cl)cc3)CC2)cc1 [3c, Metil-(E)-3-(4-{[4-(4-clorofenil)-4-idrossipiperidin-1-il]methyl}phenyl)acrylate]
effect on proliferation (UM 92-1 cells [1]): loss of activity | effect on proliferation (A375 cells): loss of activity | Ki (σ1R): 28 ± 4.4 nM | inhibition of cell spreading (MCF7 cells; MCF7 cells (low σ1R)): unable to significantly inhibit | cells flat, with protrusions, Exp 1 (%) (MCF7 cells; [3]): 49,37% | cells flat, with protrusions, Exp 2 (%) (MCF7 cells; [3]): 50,89% | cells flat, with protrusions, Exp 3 (%) (MCF7 cells; [3]): 46,27% | rounded cells, Exp 1 (%) (MCF7 cells; [3]): 50,63% | rounded cells, Exp 2 (%) (MCF7 cells; [3]): 49,11% | rounded cells, Exp 3 (%) (MCF7 cells; [3]): 53,73% | effect on VEGF-A-stimulated angiogenesis (tube lengths, mesh areas, node numbers; words) (endothelial C166 cells): mimicked the effects of 5c | cells flat, with protrusions, Exp 1 (%) (UM 92-1 cells [2]; 100 nM): 36,01% | cells flat, with protrusions, Exp 2 (%) (UM 92-1 cells [2]; 100 nM): 25,21% | cells flat, with protrusions, Exp 3 (%) (UM 92-1 cells [2]; 100 nM): 33,92% | rounded cells, Exp 1 (%) (UM 92-1 cells [2]; 100 nM): 63,99% | rounded cells, Exp 2 (%) (UM 92-1 cells [2]; 100 nM): 74,79% | rounded cells, Exp 3 (%) (UM 92-1 cells [2]; 100 nM): 66,08% | cells flat, with protrusions, Exp 1 (%) (UM 92-1 cells [2]; 5 µM): 45,38% | cells flat, with protrusions, Exp 2 (%) (UM 92-1 cells [2]; 5 µM): 18,28% | cells flat, with protrusions, Exp 3 (%) (UM 92-1 cells [2]; 5 µM): 39,44% | rounded cells, Exp 1 (%) (UM 92-1 cells [2]; 5 µM): 54,62% | rounded cells, Exp 2 (%) (UM 92-1 cells [2]; 5 µM): 81,72% | rounded cells, Exp 3 (%) (UM 92-1 cells [2]; 5 µM): 60,56% | inhibition of cell spreading (UM 92-1 cells [2]; UM 92-1 cells, from 100 nM): significantly suppressed | Ki (σ2R): 1330 ± 286 nM
